Test results: patent US8921389B2, “Naphthyridine derivatives as inhibitors of hypoxia inducible factor (HIF) hydroxylase” (Fibrogen, Inc., priority 2011, dated 2014)

Target: HIF-PH2 (EGLN1) (Homo sapiens (Human), UniProt Q9GZT9)
Experiment: HIF-PH assay (14CO2 capture, peptide-dependent turnover)
Assay type: biochemical
Settings: enzyme inhibition against HIF-PH2; peptide-dependent percent turnover
Description: Ketoglutaric acid α-[1-^14C]-sodium salt, alpha-ketoglutaric acid sodium salt, and HPLC purified peptide may be obtained from commercial sources, e.g., Perkin-Elmer (Wellesley Mass.), Sigma-Aldrich, and SynPep Corp. (Dublin Calif.), respectively. […] For example, a HIF peptide for use in the HIF-PH assay is [methoxycoumarin]-[…]-amide. HIF-PH, e.g., HIF-PH2 (EGLN1), can be expressed in, e.g., insect Hi5 cells, and partially purified, e.g., through a SP ion exchange chromatography column. […] Reactions are initiated by addition of HIF-PH enzyme.
The peptide-dependent percent turnover is calculated by subtracting percent turnover in the absence of peptide from percent turnover in the presence of substrate peptide. Percent inhibition and IC50 are calculated using peptide-dependent percent turnover at given inhibitor concentrations. Calculation of IC50 values for each inhibitor is conducted using GraFit software (Erithacus Software Ltd., Surrey UK).
Representative compounds of the disclosure were analyzed using the HIF-PH assay described above.

HIF-PH2 (EGLN1), sequence (Q9GZT9 whole entry): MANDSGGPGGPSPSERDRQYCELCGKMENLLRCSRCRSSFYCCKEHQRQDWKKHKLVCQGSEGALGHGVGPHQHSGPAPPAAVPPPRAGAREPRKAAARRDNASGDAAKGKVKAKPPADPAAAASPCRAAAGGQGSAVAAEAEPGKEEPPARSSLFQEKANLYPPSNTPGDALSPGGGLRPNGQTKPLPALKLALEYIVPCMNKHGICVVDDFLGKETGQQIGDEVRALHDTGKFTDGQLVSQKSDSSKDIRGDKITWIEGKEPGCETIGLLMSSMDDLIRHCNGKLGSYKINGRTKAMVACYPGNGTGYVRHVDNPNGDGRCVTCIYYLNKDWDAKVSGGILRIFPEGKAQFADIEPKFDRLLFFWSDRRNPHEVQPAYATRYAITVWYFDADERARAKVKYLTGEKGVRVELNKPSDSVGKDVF

Row | SMILES | IC50
1 | N#Cc1nc(C(=O)NCCN2CCOCC2)c(O)c2ccn(Cc3ccccc3)c(=O)c12 [Example 59, 7-Benzyl-1-cyano-4-hydroxy-8-oxo-7,8-dihydro-[2,7]naphthyridine-3-carboxylic acid (2-morpholin-4-yl-ethyl)-amide] | > 200 µM
2 | COc1ccc(Cn2ccc3c(O)c(C(=O)NCc4ccc(F)cc4)ncc3c2=O)c(OC)c1 [Example 78, 7-(2,4-Dimethoxy-benzyl)-4-hydroxy-8-oxo-7,8-dihydro-[2,7]naphthyridine-3-carboxylic acid 4-fluoro-benzylamide] | > 200 µM
3 | CC(=O)NCCNC(=O)c1nc(C#N)c2ccc(=O)n(Cc3ccccc3)c2c1O [Example 95, 1-Benzyl-5-cyano-8-hydroxy-2-oxo-1,2-dihydro-[1,6]naphthyridine-7-carboxylic acid (2-acetylamino-ethyl)-amide] | 134 µM
4 | O=C(O)CCNC(=O)c1nc(-c2cccnn2)c2c(cc(-c3ccccc3)c(=O)n2Cc2ccccc2)c1O [Example 203, 3-[(1-Benzyl-5-hydroxy-2-oxo-3-phenyl-8-pyridazin-3-yl-1,2-dihydro-[1,7]naphthyridine-6-carbonyl)-amino]-propionic acid] | 200 µM
5 | O=C(O)CCNC(=O)c1ncc2ccn(Cc3ccccc3)c(=O)c2c1O [Example 54, 3-[(6-Benzyl-4-hydroxy-5-oxo-5,6-dihydro-[2,6]naphthyridine-3-carbonyl)-amino]-propionic acid] | 181 µM
6 | CS(=O)(=O)NCCNC(=O)c1ncc2ccc(=O)n(Cc3ccccc3)c2c1O [Example 111, 1-Benzyl-8-hydroxy-2-oxo-1,2-dihydro-[1,6]naphthyridine-7-carboxylic acid (2-methanesulfonylamino-ethyl)-amide] | > 200 µM
7 | N#Cc1nc(C(=O)NC2CC2)c(O)c2ccn(Cc3ccccc3)c(=O)c12 [Example 39, 7-Benzyl-1-cyano-4-hydroxy-8-oxo-7,8-dihydro-[2,7]naphthyridine-3-carboxylic acid cyclopropylamide] | > 200 µM
8 | CN(CCNC(=O)c1ncc2ccc(=O)n(Cc3ccccc3)c2c1O)S(C)(=O)=O [Example 105, 1-Benzyl-8-hydroxy-2-oxo-1,2-dihydro-[1,6]naphthyridine-7-carboxylic acid [2-(methanesulfonyl-methyl-amino)-ethyl]amide] | > 200 µM
9 | O=C(NCc1nnn[nH]1)c1ncc2ccc(=O)n(Cc3ccccc3)c2c1O [Example 82, 1-Benzyl-8-hydroxy-2-oxo-1,2-dihydro-[1,6]naphthyridine-7-carboxylic acid (1H-tetrazol-5-ylmethyl)-amide] | 138 µM
10 | C[C@H](c1ccccc1)n1c(=O)c(-c2ccccc2)cc2c(O)c(C(=O)NCCC(=O)O)nc(-c3cccnc3)c21 [Example 176, (R)-3-{[5-Hydroxy-2-oxo-3-phenyl-1-(1-phenyl-ethyl)-8-pyridin-3-yl-1,2-dihydro-[1,7]naphthyridine-6-carbonyl]-amino}-propionic acid] | 196 µM
11 | CNC(=O)c1ncc2ccc(=O)n(Cc3ccccc3)c2c1O [Example 75, 1-Benzyl-8-hydroxy-2-oxo-1,2-dihydro-[1,6]naphthyridine-7-carboxylic acid methylamide] | > 200 µM
12 | N#Cc1nc(C(=O)N[C@@H](Cc2ccccc2)C(=O)O)c(O)c2ccn(Cc3ccccc3)c(=O)c12 [Example 56, (S)-2-[(7-Benzyl-1-cyano-4-hydroxy-8-oxo-7,8-dihydro-[2,7]naphthyridine-3-carbonyl)-amino]-3-phenyl-propionic acid] | > 200 µM
13 | N#Cc1nc(C(=O)N[C@H](Cc2ccccc2)C(=O)O)c(O)c2ccn(Cc3ccccc3)c(=O)c12 [Example 51, (R)-2-[(7-Benzyl-1-cyano-4-hydroxy-8-oxo-7,8-dihydro-[2,7]naphthyridine-3-carbonyl)-amino]-3-phenyl-propionic acid] | > 200 µM
14 | CC(C)(CNC(=O)c1nc(-c2cccnc2)c2c(cc(-c3ccccc3)c(=O)n2Cc2ccccc2)c1O)C(=O)O [Example 191, 3-[(1-Benzyl-5-hydroxy-2-oxo-3-phenyl-8-pyridin-3-yl-1,2-dihydro-[1,7]naphthyridine-6-carbonyl)-amino]-2,2-dimethyl-propionic acid] | 200 µM
15 | O=C(O)CCNC(=O)c1nc(-c2cccnc2)c2c(=O)n(Cc3ccccc3)ccc2c1O [Example 206, 3-[(7-Benzyl-4-hydroxy-8-oxo-1-pyridin-3-yl-7,8-dihydro-[2,7]naphthyridine-3-carbonyl)-amino]-propionic acid] | 200 µM
16 | O=C(O)CCNC(=O)c1nc(-c2cscn2)c2c(cc(-c3ccccc3)c(=O)n2Cc2ccccc2)c1O [Example 202, 3-[(1-Benzyl-5-hydroxy-2-oxo-3-phenyl-8-thiazol-4-yl-1,2-dihydro-[1,7]naphthyridine-6-carbonyl)-amino]-propionic acid] | 200 µM

Row | SMILES | IC50
17 | CN(CCNC(=O)c1nc(-c2ccccc2)c2c(cc(-c3ccccc3)c(=O)n2Cc2ccccc2)c1O)S(C)(=O)=O [Example 133, 1-Benzyl-5-hydroxy-2-oxo-3,8-diphenyl-1,2-dihydro-[1,7]naphthyridine-6-carboxylic acid [2-(methanesulfonyl-methyl-amino)-ethyl]amide] | 200 µM
18 | COc1ccc(Cn2ccc3c(O)c(C(=O)NCCc4ccccc4)ncc3c2=O)c(OC)c1 [Example 76, 7-(2,4-Dimethoxy-benzyl)-4-hydroxy-8-oxo-7,8-dihydro-[2,7]naphthyridine-3-carboxylic acid phenethyl-amide] | > 200 µM
19 | O=C(O)CCNC(=O)c1nc(-c2nccs2)c2c(cc(-c3ccccc3)c(=O)n2Cc2ccccc2)c1O [Example 195, 3-[(1-Benzyl-5-hydroxy-2-oxo-3-phenyl-8-thiazol-2-yl-1,2-dihydro-[1,7]naphthyridine-6-carbonyl)-amino]-propionic acid] | 138 µM
20 | CC(C)(CNC(=O)c1nc(-c2cncc(F)c2)c2c(=O)n(Cc3ccccc3)ccc2c1O)C(=O)O [Example 88, 3-{[7-Benzyl-1-(5-fluoro-pyridin-3-yl)-4-hydroxy-8-oxo-7,8-dihydro-[2,7]naphthyridine-3-carbonyl]-amino}-2,2-dimethyl-propionic acid] | > 200 µM
21 | CC(=O)NCCNC(=O)c1ncc2ccc(=O)n(Cc3ccccc3)c2c1O [Example 96, 1-Benzyl-8-hydroxy-2-oxo-1,2-dihydro-[1,6]naphthyridine-7-carboxylic acid (2-acetylamino-ethyl)-amide] | 137 µM
22 | O=C(NCCNC(=O)C(F)(F)F)c1ncc2c(cc(-c3ccccc3)c(=O)n2Cc2ccccc2)c1O [Example 109, 1-Benzyl-5-hydroxy-2-oxo-3-phenyl-1,2-dihydro-[1,7]naphthyridine-6-carboxylic acid [2-(2,2,2-trifluoro-acetylamino)-ethyl]-amide] | > 200 µM
23 | Cc1ccc(-c2nc(C(=O)NCCC(=O)O)c(O)c3cc(-c4ccccc4)c(=O)n(Cc4ccccc4)c23)cn1 [Example 179, 3-{[1-Benzyl-5-hydroxy-8-(6-methyl-pyridin-3-yl)-2-oxo-3-phenyl-1,2-dihydro-[1,7]naphthyridine-6-carbonyl]-amino}-propionic acid] | 176 µM
24 | N#Cc1nc(C(=O)NCCCCC(=O)O)c(O)c2ccn(Cc3ccccc3)c(=O)c12 [Example 52, 5-[(7-Benzyl-1-cyano-4-hydroxy-8-oxo-7,8-dihydro-[2,7]naphthyridine-3-carbonyl)-amino]-pentanoic acid] | > 200 µM
25 | CC(C)NC(=O)NCCNC(=O)c1ncc2c(=O)n(Cc3ccccc3)ccc2c1O [Example 89, 7-Benzyl-4-hydroxy-8-oxo-7,8-dihydro-[2,7]naphthyridine-3-carboxylic acid [2-(3-isopropyl-ureido)-ethyl]-amide] | > 200 µM
26 | N#Cc1nc(C(=O)NCCCCC(=O)O)c(O)c2cc(-c3ccccc3)c(=O)n(Cc3ccccc3)c12 [Example 24, 5-[(1-Benzyl-8-cyano-5-hydroxy-2-oxo-3-phenyl-1,2-dihydro-[1,7]naphthyridine-6-carbonyl)-amino]-pentanoic acid] | > 200 µM
27 | O=C(O)CCNC(=O)c1ncc2ccc(=O)n(Cc3ccccc3)c2c1O [Example 70, 3-[(1-Benzyl-8-hydroxy-2-oxo-1,2-dihydro-[1,6]naphthyridine-7-carbonyl)-amino]-propionic acid] | 167 µM
28 | CCNC(=O)NCCNC(=O)c1ncc2c(cc(-c3ccccc3)c(=O)n2Cc2ccccc2)c1O [Example 110, 1-Benzyl-5-hydroxy-2-oxo-3-phenyl-1,2-dihydro-[1,7]naphthyridine-6-carboxylic acid [2-(3-ethyl-ureido)-ethyl]-amide] | 200 µM
29 | Cc1nc(C(=O)NCCC(=O)O)c(O)c2c1ccc(=O)n2Cc1ccccc1 [Example 112, 3-[(1-Benzyl-8-hydroxy-5-methyl-2-oxo-1,2-dihydro-[1,6]naphthyridine-7-carbonyl)-amino]-propionic acid] | > 200 µM
30 | N#Cc1nc(C(=O)NCCS(N)(=O)=O)c(O)c2c1ccc(=O)n2Cc1ccccc1 [Example 106, 1-Benzyl-5-cyano-8-hydroxy-2-oxo-1,2-dihydro-[1,6]naphthyridine-7-carboxylic acid (2-sulfamoyl-ethyl)-amide] | > 200 µM
31 | O=C(O)CCNC(=O)c1nc(-c2ccc(C(F)(F)F)nc2)c2c(cc(-c3ccccc3)c(=O)n2Cc2ccccc2)c1O [Example 180, 3-{[1-Benzyl-5-hydroxy-2-oxo-3-phenyl-8-(6-trifluoromethyl-pyridin-3-yl)-1,2-dihydro-[1,7]naphthyridine-6-carbonyl]-amino}-propionic acid] | 107 µM
